Data from ChEMBL document CHEMBL4138052, “Synthesis, characterization, solubilization, cytotoxicity and antioxidant activity of aminomethylated dihydroquercetin” (Medchemcomm, 2017).
Converted amounts (≈) assume the structure as drawn. The source made the active and inactive calls. The calls are words filed in the database; no cut-off is given here.

What was measured:
[1] = Safety index, ratio of EC50 for aristolochic acid to EC50 for test compound for cytotoxicity in HEK293 cells assessed as reduction in cell survival incubated for 48 hrs by MTT assay; assay type: cell-based; conditions: human, read-out: Ratio EC50
[2] = Antioxidant activity assessed as DPPH radical scavenging activity using micronized compound; assay type: functional
[3] = Antioxidant activity assessed as ABTS radical scavenging activity at 0.1 mM incubated for 6 mins by spectrophotometry; assay type: functional
[4] = Dissolution of the compound at 0.12 mg measured at 360 mins by UV spectrophotometry; assay type: physicochemical; conditions: 6 h
HEK293 [5] = experiment: Potency index, ratio of cell growth stimulation activity of DHQ to cell growth stimulation activity of test compound for stimulation of cell growth in HEK293 cells assessed as cell growth rate at 200 uM incubated for 48 hrs by MTT assay; assay type: functional, Homo sapiens
[6] = Antioxidant activity assessed as DPPH radical scavenging activity at 0.03 to 0.06 mM incubated for 30 mins; assay type: functional
[7] = Solubility in PBS using micronized compound measured at 60 mins; assay type: physicochemical
[8] = Antioxidant activity assessed as ABTS radical scavenging activity incubated for 6 mins by spectrophotometry; assay type: functional
[9] = Ratio of solubility of DHQ to solubility of test compound in water at pH 5.7 under nitrogen and sheltered from light condition incubated for 1 hr; assay type: physicochemical; conditions: buffer, pH 5.7, 1 h
[10] = Solubility in water at pH 5.7 under nitrogen and sheltered from light condition incubated for 1 hr; assay type: physicochemical
[11] = Reducing power of the compound assessed as reducing Fe3+ power at 0.15 to 1.2 mM using potassium ferricyanide in pH 6.6 KH2PO4-K2HPO4 buffer by UV spectrophotometry; assay type: physicochemical; conditions: pH 6.6, 1200 µM
HEK293 [12] = experiment: Stimulation of cell growth in HEK293 cells assessed as increase in cell survival at 2 to 360 uM incubated for 48 hrs by MTT assay; assay type: functional, cell-based; conditions: Homo sapiens
[13] = Thermal stability of the compound assessed as drug degradation by measuring compound weight loss at 217 to 600 degC; assay type: physicochemical; conditions: read-out: Drug degradation
[14] = Dissolution of the compound at 0.12 mg measured at 38 mins by UV spectrophotometry; assay type: physicochemical
HeLa = experiment: Cytotoxicity in human HeLa cells assessed as reduction in cell survival incubated for 48 hrs by MTT assay; assay type: functional, cell-based
[15] = Antioxidant activity assessed as DPPH radical scavenging activity at 0.09 mM incubated for 30 mins; assay type: functional
HEK293 [16] = experiment: Stimulation of cell growth in HEK293 cells assessed as cell growth rate at 200 uM incubated for 48 hrs by MTT assay; assay type: functional; conditions: Homo sapiens, HEK293, 48 h; read-out: Activity
HEK293 [17] = experiment: Cytotoxicity in HEK293 cells assessed as reduction in cell survival incubated for 48 hrs by MTT assay; assay type: cell-based; conditions: Homo sapiens, HEK293, 48 h
[18] = Thermal stability of the compound assessed as drug degradation by measuring compound weight loss at 30 to 100 degC; assay type: physicochemical; conditions: read-out: Drug degradation
[19] = Thermal stability of the compound assessed as drug degradation by measuring compound weight loss at 247 to 600 degC; assay type: physicochemical; conditions: read-out: Drug degradation

SMILES | selectivity ratio at 48 h [1] | IC50 [2] [µg/mL] | Activity [3] [%] | Activity [6] | solubility at 1 h [7] [µg/mL] | IC50 [8] [µM] | solubility at 1 h [10] [µg/mL] | Activity [11] | Activity (HEK293 [12]) | Activity [14] [%] | Activity (HeLa) | EC50 (HeLa) [µM] | Activity [15] [%] | growth at 200 µM (HEK293 [16]) [%] | EC50 (HEK293 [17]) [µM] | also measured
O=C(O)C1CCCN1Cc1c(O)c(CN2CCCC2C(=O)O)c2c(c1O)C(=O)[C@@H](O)[C@H](c1ccc(O)c(O)c1)O2 (some centres undefined) | 7 | 22 (≈ 39.4 µM) | 98.3 | Active | 210 (≈ 376 µM) | 42 | 19500 (≈ 35000 µM) | Dose-dependent effect | Active | 87.1 | Dose-dependent effect | 138 | 85.7 | 54.5 | 820 | Activity [4]: 83.78%; Ratio (HEK293 [5]): 2.5; Ratio [9]: 16; degraded [13]: 64.8%
O=C1c2c(O)cc(O)cc2O[C@H](c2ccc(O)c(O)c2)[C@H]1O [(+)-TAXIFOLIN] | 5.6 | 500 (≈ 1640 µM) | 84.9 | Active | 20 (≈ 65.7 µM) | 48 | 1200 (≈ 3940 µM) | Dose-dependent effect | Active | 13.8 | Dose-dependent effect | 125 | 88.7 | 22.6 | 671 | degraded [18]: 10.1%; degraded [19]: 43.4%
COc1cccc2c1cc([N+](=O)[O-])c1c(C(=O)O)cc3c(c12)OCO3 [ARISTOLOCHIC ACID] | – | – | – | – | – | – | – | – | – | – | – | – | – | – | 118 | –
O=C1O[C@H]([C@@H](O)CO)C(O)=C1O [ASCORBIC ACID] | – | – | – | – | – | 42 | – | Dose-dependent effect | – | – | – | – | – | – | – | –
